Each structure is given as a SMILES string. Numbers after ± are expanded uncertainties.

From the NIST ThermoML archive (doi:10.1016/j.jct.2005.04.006) come the findings set out here.

Data set [1] in a line: refractive index (Na D-line) (dimensionless). The note with it: 298.15 K; 101.33 kPa; Liquid.
For data set [2] the following is noted: Liquid; for mass density: 298.15 K, 101.33 kPa.

As usually defined, the refractive index is a measure of how strongly the sample bends light. Broadly, the mass density is mass per unit of volume. Broadly, the vapor or sublimation pressure is the pressure of vapour in equilibrium with the condensed phase. Consider `Cc1cccc(C)c1` [1,3-dimethylbenzene], for which the refractive index in data set [1] amounted to 1.4946 ± 0.0016. Further, the mass density in data set [2] came out at 860.1 ± 2.1 kg/m3. Moreover, the “vapor or sublimation pressure” value in data set [2] (409.35 K) came to 95.8 ± 5 kPa.

For `Cc1ccc(C)cc1` [1,4-dimethylbenzene], the refractive index in data set [1] was 1.4933 ± 0.0016. Also, the mass density in data set [2] stood at 856.6 ± 2.1 kg/m3. Also, the “vapor or sublimation pressure” value in data set [2] (409.35 K) worked out at 95.8 ± 5 kPa.

With `CC(C)CC(C)(C)C` [2,2,4-trimethylpentane], the refractive index in data set [1] worked out at 1.3889 ± 0.0016. Further, the mass density in data set [2] came out at 687.8 ± 1.5 kg/m3. The “vapor or sublimation pressure” value in data set [2] (370.55 K) came to 95.8 ± 5 kPa.

With `CC(C)(C)O` [2-methylpropan-2-ol], in data set [1], the refractive index is listed as 1.3852 ± 0.0016. Moreover, the mass density in data set [2] was found to be 781.2 ± 1.8 kg/m3. In data set [2] (354.15 K), the “vapor or sublimation pressure” value was 95.8 ± 5 kPa.

Take `Clc1ccccc1` [chlorobenzene]: the refractive index in data set [1] came out at 1.5219 ± 0.0016. Further, the mass density in data set [2] came to 1100.9 ± 2.9 kg/m3. The “vapor or sublimation pressure” value in data set [2] (402.95 K) is 95.8 ± 5 kPa.

Take `CCO` [ethanol]: the refractive index in data set [1] worked out at 1.3594 ± 0.0016. The mass density in data set [2] is listed as 784.9 ± 1.8 kg/m3. The “vapor or sublimation pressure” value in data set [2] (350.05 K) was 95.8 ± 5 kPa.

Turning to `CCCCCC` [hexane], the refractive index in data set [1] came out at 1.3723 ± 0.0016. The mass density in data set [2] is reported as 654.8 ± 1.4 kg/m3. In addition, in data set [2] (340.25 K), the “vapor or sublimation pressure” value is reported as 95.8 ± 5 kPa.
